# Target: T1, human LPAR1 (Homo sapiens, UniProt Q92633)
# T1 construct: host or cells: TangoEDG2-bla U2OS cells
# Experiment: Arrestin assay (Arrestin Reporter EDG2-bla U2OS), inhibition of LPA-stimulated signal
# Type: cell-based
# Conditions: TangoEDG2-bla U2OS cells expressing human LPAR1; 0.25 μM LPA; read-out: Arrestin Reporter EDG2-bla U2OS Human IC50
# Outline: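 TangoEDG2-bla U2OS cells (1×10^4/well, plated 18-20 h) were preincubated 1 h at 37 °C with compound (12-point, 3-fold, 10 μM to 0.00006 μM), then stimulated 3 h with 0.25 μM LPA final. LiveBLAzer FRET B/G 460/530 nm emission ratio gave % inhibition; IC50 from 4-parameter variable-slope fit.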
# T1 sequence (Q92633 whole entry): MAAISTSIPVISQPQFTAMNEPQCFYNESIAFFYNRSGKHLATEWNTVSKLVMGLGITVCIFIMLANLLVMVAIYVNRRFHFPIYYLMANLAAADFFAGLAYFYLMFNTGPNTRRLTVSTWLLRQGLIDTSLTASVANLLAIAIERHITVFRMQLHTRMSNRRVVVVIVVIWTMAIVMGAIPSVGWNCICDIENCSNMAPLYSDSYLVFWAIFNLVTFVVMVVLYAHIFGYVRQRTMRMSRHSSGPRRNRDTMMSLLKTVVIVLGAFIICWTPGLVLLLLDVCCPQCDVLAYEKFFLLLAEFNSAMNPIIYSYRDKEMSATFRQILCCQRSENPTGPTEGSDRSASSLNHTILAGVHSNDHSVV
row,IC50,Structure (SMILES)
1,51.5 nM,"CC(C)c1ccnn1C1(C(=O)Nc2ccc(Cl)cc2OC(F)F)CCN([C@H]2C[C@H](C(=O)O)C2)CC1 [Compound 62, (1r,3r)-3-[4-[[4-chloro-2-(difluoromethoxy)phenyl]carbamoyl]-4-(5-isopropylpyrazol-1-yl)-1-piperidyl]cyclobutanecarboxylic acid]"
2,43.6 nM,"CC(C)c1ccnn1C1(C(=O)Nc2ccc(Cl)cc2OC(F)F)CCN([C@H]2C[C@@](C)(C(=O)O)C2)CC1 [Compound 77, (1s,38)-3-[4-[[4-chloro-2-(difluoromethoxy)phenyl]carbamoyl]-4-(5-isopropylpyrazol-1-yl)-1-piperidyl]-1-methyl-cyclobutanecarboxylic acid]"

# Same assay, conditions: TangoEDG2-bla U2OS cells expressing human LPAR1; 0.25 μM LPA; read-out: Arrestin Reporter EDG2-bla U2OS Human Merged IC50
row,Structure (SMILES),IC50
1,"CCOC(=O)N1CC[C@](CN2CCC(C(=O)Nc3ccc(Cl)cc3OC(F)F)(n3nccc3C(C)C)CC2)(C(=O)O)C1 [Compound 56, (3R)-3-[[4-[[4-chloro-2-(difluoromethoxy)phenyl]carbamoyl]-4-(5-isopropylpyrazol-1-yl)-1-piperidyl]methyl]-1-ethoxycarbonyl-pyrrolidine-3-carboxylic acid]",6.73 nM
2,"CC(C)c1ccnn1C1(C(=O)Nc2ccc(Cl)cc2OC(F)F)CCN(CC2(C(=O)O)CCN(C(=O)C34CC(C(C)C)(C3)C4)CC2)CC1 [Compound 57, 4-[[4-[[4-chloro-2-(difluoromethoxy)phenyl]carbamoyl]-4-(5-isopropylpyrazol-1-yl)-1-piperidyl]methyl]-1-(3-isopropylbicyclo[1.1.1]pentane-1-carbonyl)piperidine-4-carboxylic acid]",6.83 nM
3,"COC1(C(=O)N2CCC(CN3CCC(C(=O)Nc4ccc(Cl)cc4OC(F)F)(n4nccc4C(C)C)CC3)(C(=O)O)CC2)CC1 [Compound 58, 4-[[4-[[4-chloro-2-(difluoromethoxy)phenyl]carbamoyl]-4-(5-isopropylpyrazol-1-yl)-1-piperidyl]methyl]-1-(1-methoxycyclopropanecarbonyl) piperidine-4-carboxylic acid]",75.6 nM
4,"COCC1(C(=O)N2CCC(CN3CCC(C(=O)Nc4ccc(Cl)cc4OC(F)F)(n4nccc4C(C)C)CC3)(C(=O)O)CC2)CCC1 [Compound 59, 4-[[4-[[4-chloro-2-(difluoromethoxy)phenyl]carbamoyl]-4-(5-isopropylpyrazol-1-yl)-1-piperidyl]methyl]-1-[1-(methoxymethyl)cyclobutanecarbonyl] piperidine-4-carboxylic acid]",26.4 nM
5,"COCC(OC)C(=O)N1CCC(CN2CCC(C(=O)Nc3ccc(Cl)cc3OC(F)F)(n3nccc3C(C)C)CC2)(C(=O)O)CC1 (stereo not shown) [Compound 60, 4-[[4-[[4-chloro-2-(difluoromethoxy)phenyl]carbamoyl]-4-(5-isopropylpyrazol-1-yl)-1-piperidyl]methyl]-1-(2,3-dimethoxypropanoyl) piperidine-4-carboxylic acid]",91.2 nM
6,"CC(C)c1ccnn1C1(C(=O)Nc2ccc(Cl)cc2OC(F)F)CCN(CC2(C(=O)O)Cc3ccccc3C2)CC1 [Compound 63, 2-[[4-[[4-chloro-2-(difluoromethoxy)phenyl]carbamoyl]-4-(5-isopropylpyrazol-1-yl)-1-piperidyl]methyl]indane-2-carboxylic acid]",4.5 nM
7,"CCC(=O)N1CC(CN2CCC(C(=O)Nc3ccc(Cl)cc3OC(F)F)(n3nccc3C(C)C)CC2)(C(=O)O)C1 [Compound 64, 3-[[4-[[4-chloro-2-(difluoromethoxy)phenyl]carbamoyl]-4-(5-isopropylpyrazol-1-yl)-1-piperidyl]methyl]-1-propanoyl-azetidine-3-carboxylic acid]",51.5 nM
8,"CC(C)c1ccnn1C1(C(=O)Nc2ccc(Cl)cc2OC(F)F)CCN(CC2(C(=O)O)CCS(=O)(=O)CC2)CC1 [Compound 65, 4-[[4-[[4-chloro-2-(difluoromethoxy)phenyl]carbamoyl]-4-(5-isopropylpyrazol-1-yl)-1-piperidyl]methyl]-1,1-dioxo-thiane-4-carboxylic acid]",9.87 nM
9,"COC12CC(C(=O)N3CCC(CN4CCC(C(=O)Nc5ccc(Cl)cc5OC(F)F)(n5nccc5C(C)C)CC4)(C(=O)O)CC3)(C1)C2 [Compound 68, 4-[[4-[[4-chloro-2-(difluoromethoxy)phenyl]carbamoyl]-4-(5-isopropylpyrazol-1-yl)-1-piperidyl]methyl]-1-(3-methoxybicyclo[1.1.1]pentane-1-carbonyl)piperidine-4-carboxylic acid]",65.6 nM
10,"CC(C)c1ccnn1C1(C(=O)Nc2ccc(Cl)cc2OC(F)F)CCN(CC2(C(=O)O)CC3CCC2C3)CC1 (stereo not shown) [Compound 70, 2-[[4-[[4-chloro-2-(difluoromethoxy)phenyl]carbamoyl]-4-(5-isopropylpyrazol-1-yl)-1-piperidyl]methyl]norbomane-2-carboxylic acid]",11.4 nM
11,"CC(C)c1ccnn1C1(C(=O)Nc2ccc(Cl)cc2OC(F)F)CCN(CC2(C(=O)O)CCN(C(=O)C3CCOCC3)CC2)CC1 [Compound 71, 4-[[4-[[4-chloro-2-(difluoromethoxy)phenyl]carbamoyl]-4-(5-isopropylpyrazol-1-yl)-1-piperidyl]methyl]-1-(tetrahydropyran-4-carbonyl)piperidine-4-carboxylic acid]",105 nM
12,"CC(C)c1ccnn1C1(C(=O)Nc2ccc(Cl)cc2OC(F)F)CCN(CC2(C(=O)O)CCN(C(=O)C34CC(F)(C3)C4)CC2)CC1 [Compound 72, 4-[[4-[[4-chloro-2-(difluoromethoxy)phenyl]carbamoyl]-4-(5-isopropylpyrazol-1-yl)-1-piperidyl]methyl]-1-(3-fluorobicyclo[1.1.1]pentane-1-carbonyl)piperidine-4-carboxylic acid]",18.8 nM
13,"CC(C)c1ccnn1C1(C(=O)Nc2ccc(Cl)cc2OC(F)F)CCN(CC2(C(=O)O)CC23CCOCC3)CC1 (stereo not shown) [Compound 73, 2-[[4-[[4-chloro-2-(difluoromethoxy)phenyl]carbamoyl]-4-(5-isopropylpyrazol-1-yl)-1-piperidyl]methyl]-6-oxaspiro[2.5]octane-2-carboxylic acid]",37.2 nM
14,"CC(C)C(=O)N1CCC(CN2CCC(C(=O)Nc3ccc(Cl)cc3OC(F)F)(n3nccc3C(C)C)CC2)(C(=O)O)CC1 [Compound 75, 4-[[4-[[4-chloro-2-(difluoromethoxy)phenyl]carbamoyl]-4-(5-isopropylpyrazol-1-yl)-1-piperidyl]methyl]-1-(2-methylpropanoyl)piperidine-4-carboxylic acid]",32.7 nM
15,"CC(C)c1ccnn1C1(C(=O)Nc2ccc(Cl)cc2OC(F)F)CCN(CC2(C(=O)O)CC2)CC1 [Compound 76, 1-[[4-[[4-chloro-2-(difluoromethoxy)phenyl]carbamoyl]-4-(5-isopropylpyrazol-1-yl)-1-piperidyl]methyl]cyclopropanecarboxylic acid]",65.5 nM

# The next lines start with the values.
row,IC50,Structure (SMILES)
1,56.5 nM,"COCCC(=O)N1CCC(CN2CCC(C(=O)Nc3ccc(Cl)cc3OC(F)F)(n3nccc3C(C)C)CC2)(C(=O)O)CC1 [Compound 54, 4-[[4-[[4-chloro-2-(difluoromethoxy)phenyl]carbamoyl]-4-(5-isopropylpyrazol-1-yl)-1-piperidyl]methyl]-1-(3-methoxypropanoyl) piperidine-4-carboxylic acid]"
2,4.57 nM,"CCOC(=O)N1CC[C@@](CN2CCC(C(=O)Nc3ccc(Cl)cc3OC(F)F)(n3nccc3C(C)C)CC2)(C(=O)O)C1 [Compound 55, (3S)-3-[[4-[[4-chloro-2-(difluoromethoxy)phenyl]carbamoyl]-4-(5-isopropylpyrazol-1-yl)-1-piperidyl]methyl]-1-ethoxycarbonyl-pyrrolidine-3-carboxylic acid]"
3,22.8 nM,"CC(C)c1c(F)cnn1C1(C(=O)Nc2ccc(Cl)cc2OC(F)F)CCN(CC2(C(=O)O)CCOCC2)CC1 [Compound 66, 4-[[4-[[4-chloro-2-(difluoromethoxy)phenyl]carbamoyl]-4-(4-fluoro-5-isopropyl-pyrazol-1-yl)-1-piperidyl]methyl]tetrahydropyran-4-carboxylic acid]"
4,20.9 nM,CCC(CC)(CN1CCC(C(=O)Nc2ccc(Cl)cc2OC(F)F)(n2nccc2C(C)C)CC1)C(=O)O [Compound 67]
5,14.8 nM,"CC(C)c1ccnn1C1(C(=O)Nc2ccc(Cl)cc2OC(F)F)CCN(CC2(C(=O)O)CCN(C(=O)C34CC(C3)C4)CC2)CC1 [Compound 69, 1-(bicyclo[1.1.1]pentane-1-carbonyl)-4-[[4-[[4-chloro-2-(difluoromethoxy)phenyl]carbamoyl]-4-(5-isopropylpyrazol-1-yl)-1-piperidyl]methyl]piperidine-4-carboxylic acid]"
6,10.8 nM,"CC(C)c1ccnn1C1(C(=O)Nc2ccc(Cl)cc2OC(F)F)CCN(CC2(C(=O)O)CC=CC2)CC1 [Compound 74, 1-[[4-[[4-chloro-2-(difluoromethoxy)phenyl]carbamoyl]-4-(5-isopropylpyrazol-1-yl)-1-piperidyl]methyl]cyclopent-3-ene-1-carboxylic acid]"
7,15.7 nM,"CC(C)c1ccnn1C1(C(=O)Nc2ccc(Cl)cc2OC(F)F)CCN(CC2(C(=O)O)CCN(C(=O)C34CC(C)(C3)C4)CC2)CC1 [Compound 79, 4-[[4-[[4-chloro-2-(difluoromethoxy)phenyl]carbamoyl]-4-(5-isopropylpyrazol-1-yl)-1-piperidyl]methyl]-1-(3-metbylbicyclo[1.1.1]pentane-1-carbonyl)piperidine-4-carboxylic acid]"
8,129 nM,"CC(C)c1ccnn1C1(C(=O)Nc2ccc(Cl)cc2OC(F)F)CCN(CC2(C(=O)O)CCN(C(=O)C34CC(C#N)(C3)C4)CC2)CC1 [Compound 80, 4-[[4-[[4-chloro-2-(difluoromethoxy)phenyl]carbamoyl]-4-(5-isopropylpyrazol-1-yl)-1-piperidyl]methyl]-1-(3-cyanobicyclo[1.1.1]pentane-1-carbonyl)piperidine-4-carboxylic acid]"

# Reference: patent publication US20260102383A1, “LPAR1 Inhibitors” (AbbVie Inc., priority 2024, published 2026)
